Measured values from patent US20100297017A1, “Method for Synthesizing and Using Pegylated Peptide-Photoactive Chromophore Conjugates and Micellular Formulations Thereof” (priority 2008, published 2010).
Like-named read-outs stand apart in the source and are kept apart here.

Assays:
[1] = tested on: A-431 human tumor xenografts; assay: Preliminary tumor growth delay studies after phototherapy (Example 3, FIG. 3); format: in vivo, mice
Experimental: Mice were implanted with A-431 tumor xenografts and were administered phototherapy when their tumor sizes reached approximately 150 mm^3. Tumors were then regularly measured to determine the time it took for the tumors to reach four times their initial treatment size. To allow for easier comparisons, tumor growth delay data sets have been aligned so that the 0-day time point corresponds to a tumor volume of 150 mm^3. Diamond, control mice (no PPa or sPPp conjugate; no light), lumped data set, n=6. Squares, mice treated with 60 nmoles surfactant-solubilized free PPa in 2% ethanol/1% TWEEN 80/PBS for a ˜16 hour incubation and treated with 100 J/(cm*cm) light, n=4. Triangles, mice treated with 60 nmoles partially PEG2(20 kDa)ylated (˜63 molar %) sPPp conjugate in PBS for a ˜16 hour incubation and treated with 500 J/(cm*cm) light, n=3.
Preliminary tumor growth delay studies comparing the in vivo phototherapeutic effects of the partially PEG2(20 kDa)ylated sPPp conjugate to the gold standard surfactant-solubilized free PPa solution are shown in FIG. 3. A-431 human tumor xenografts were grown in mice as previously described, and when tumors reached ˜150 mm^3, mice were injected via the tail vein or retro-orbitally with 60 to 80 nmoles PPa content in a bolus volume of approximately 200 microliters. Sixteen hours post-injection, the entire tumor surface along with a 1-2 mm margin of skin around the tumor edge was uniformly irradiated with the expanded beam of a 670 nm laser at an incident fluence rate of ˜50 mW/cm^2. Six mice that received no injections and no irradiations served as a control group. Tumor growth delays resulting from the tumoricidal effects of the phototherapeutic treatments were determined with respect to the control group. For control mice, it took roughly 8.1 days for tumors to quadruple in size from 150 mm^3 to 600 mm^3, and for mice treated with 60 nmoles surfactant-solubilized free PPa and 100 J/cm^2 light, it took only slightly longer, 12.6±2.4 days (i.e., a tumor growth delay of ˜4.5 days compared to the control group). […]

[2] = Solubility in aqueous solutions
Excerpt: Therefore, two different approaches for modifying the sPPp conjugate were investigated to improve its in vivo targetability.

[3] = tested on: A-431 human epidermoid carcinoma tumor xenografts; assay: Time-coursed fluorescence imaging in tumor xenograft model with ROI analysis; format: in vivo, athymic nude mice
Experimental: ROI measurements were done using ImageJ software (Rasband 1997-2007). For FIGS. 2A and 2B, image exposure times were 0.65 seconds, whereas image exposure times in FIG. 2C were 4 seconds in order to compensate for the smaller injected dosage of PPa content.
To assess the in vivo delivery characteristics of sPPp conjugate formulations, time-coursed fluorescence imaging studies were performed in a tumor xenograft model grown in athymic nude mice. Tumor xenografts were grown subcutaneously in the left upper chest region using the A-431 human epidermoid carcinoma cell line (American Type Culture Collection, Manassas, Va.), which is ideal for EGFR-targeting studies given that these cells overexpress ˜1×10^6-2.6×10^6 EGFR/cell (Haigler, et al. (1978) Proc. Natl. Acad. Sci. USA 75:3317-21; Mendelsohn (1997) Clin. Cancer Res. 3:2703-7). When tumor sizes reached greater than ˜100 mm^3, mice were imaged pre-injection, and then free PPa or sPPp conjugate formulations that had been sterile filtered through a 0.2 micron membrane were injected via tail vein or retro-orbitally at dosages ranging from ˜10 to ˜80 nmoles PPa content per mouse (mice weighed ˜20 g) in a single bolus volume of approximately 200 microliters. A series of post-injection images were then taken over a period of time until mouse fluorescence levels approached pre-injection baseline levels. Images were acquired of the ventral surface of the animals using a custom built surface-weighted fluorescence imager with a 670 nm laser for excitation and a 685 nm long-pass emission filter for detection (Pogue, et al. (2004) Technol. Cancer Res. Treat. 3:15-21). […]
As a quantitative measure of the tumor contrast generated by the surfactant-solubilized free PPa solution and the different sPPp conjugate formulations, region of interest (ROI) mean pixel values of the tumor area and control adjacent chest area were measured from the imaging data sets.

[4] = tested on: EGFR-overexpressing A-431 tumor xenograft; assay: Tumor growth delay photodynamic therapy (PDT) studies, single and repeat treatment (Example 4, FIGS. 4 and 5); format: in vivo, athymic NCr nu/nu mice; details: single PDT, 60 nmole PPa content per 20 g, 100 J/cm^2 at ~16 hours post-injection
Experimental: All formulations were administered at a dosage equivalent to 60 nmole PPa content per 20 gram body weight in a 200 μl bolus injection via the tail vein (or via retro-orbital injection when tail vein injections were not feasible). A 670 nm diode laser light dose of 100 J/cm^2, delivered at ˜50 mW/cm^2, was given at ˜16 hours post-injection over an area covering the entire tumor surface as well as a 2 to 3 mm border extending beyond the edge of the tumor. The tumor model was the EGFR-overexpressing A-431 tumor xenograft grown in athymic NCr nu/nu mice (5-week old mice from the National Cancer Institute at Frederick, Md.). Data series were plotted so that the time at which each tumor reached ˜150 mm^3 corresponds to 0 days; i.e., the approximate time at which the PDT light dose was administered.
Control experiments were also performed, which included injecting mice with the sPPp formulations but not exposing them to light.

[5] = 60 nmoles, 100 J/cm^2 light, 16 hours post-injection

pyropheophorbide-a [free PPa]
time for tumors to quadruple in size from 150 mm^3 to 600 mm^3 [1, 5]: 12.6 ± 2.4 days | tumor growth delay compared to the control group [1, 5]: ~4.5 days | lethality ([1]; irradiations performed immediately after injection): very high incidence of lethality | solubility in aqueous solutions ([2]; aqueous solutions): required potentially harmful solubilizers to prevent the formation of large insoluble aggregates | peak tumor area to adjacent chest area mean pixel value ratio (tumor contrast) ([3]; 60 nmoles PPa in 2% ethanol/1% TWEEN 80/PBS, at ~16 hours post-injection, FIG. 2A): ~1.5 | clearance from the circulation ([3]; A-431 tumor-bearing mice, single bolus injection, fluorescence imaging): cleared very rapidly from the circulation via the hepatobiliary system | tumor fluorescence at time of peak tumor contrast ([3]; FIG. 2): already approaching pre-injection fluorescence levels | delay in tumor growth compared to untreated control mice [4]: no significant delay in tumor growth

C=CC1=C(C)c2cc3[nH]c(c4c5nc(cc6[nH]c(cc1n2)c(C)c6CC)C(C)=C5C(=O)C4)C(CCC(=O)NC(CC(=O)O)C(=O)NCCCCC(N)C(=O)NCCOCCOCCOCCOCCOCCOCCOCCOCCOCCOCCOCCOCCC(=O)NCCOCCOCCOCCOCCOCCOCCOCCOCCOCCOCCOCCOCCC(N)=O)C3C (stereo not drawn) [sPPp]
solubility in aqueous solutions [2]: highly soluble and readily dissolved in aqueous solutions
